From patent US8436151B2, “Indoleamine 2,3-dioxygenase-2 antibodies” (Lankenau Institute for Medical Research, priority 2006, dated 2013)
Entries after “also recorded” stand apart in the source; their conditions may differ.

Columns and labels:
[1] = test system: allogeneic mouse concepti; details: Mellor et al. 2001; Munn et al. 1998; cited from earlier work
IDO2 = target: T1, IDO2 (Mus musculus, UniProt Q8R0V5); assay: Cell-based kynurenine detection assay in IDO2 expressing T-REx cells; parameters: species or system murine; details: doxycycline-induced T-REx cells, increasing concentrations, 5 days (FIG. 8B)
T1 construct: The complete coding regions of murine IDO1 and IDO2 were cloned in-frame with the V5/His TAG coding region in pcDNA4/TO; expressed in transfected cells; host or cells: T-REx-293 cells (Invitrogen), pcDNA4/TO-muIDO2, doxycycline-induced
T1 sequence (Q8R0V5 1-405): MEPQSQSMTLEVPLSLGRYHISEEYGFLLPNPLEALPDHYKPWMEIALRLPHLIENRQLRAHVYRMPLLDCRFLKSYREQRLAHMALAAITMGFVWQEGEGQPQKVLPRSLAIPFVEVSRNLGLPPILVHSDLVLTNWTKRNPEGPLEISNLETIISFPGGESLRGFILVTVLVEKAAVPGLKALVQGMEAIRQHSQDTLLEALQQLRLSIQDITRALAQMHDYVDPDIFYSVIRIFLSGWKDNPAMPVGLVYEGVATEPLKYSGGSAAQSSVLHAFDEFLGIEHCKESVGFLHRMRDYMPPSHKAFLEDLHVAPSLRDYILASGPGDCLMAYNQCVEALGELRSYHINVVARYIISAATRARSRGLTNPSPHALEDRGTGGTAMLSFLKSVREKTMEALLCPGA
Description: This assay measures the product of the indoleamine 2,3-dioxygenase conversion of L-tryptophan to N-formyl-kynurenine by acid hydrolysis to kynurenine, which is measured indirectly though the absorbance (480 nm) of imine produced by the reaction of the aromatic amino group of klynurenine with p-dimethylaminobenzaldehyde (Ehrlich's reagent) as described by Takikawa et al. (J. Biol. Chem. (1988) 263:2041-2048). Typically, 200 μL of media from the test sample is combined with 12.5 μL of 30% TCA and incubated at 50° C. for 30 minutes. Evaporation was avoided by sealing the rim of the plate or tubes with parafilm. Samples are clarified by centrifugation for 10 minutes at 3-10K rpm. 100 μL of the supernatant was removed to a fresh well in an assay plate and mixed with 100 μL of fresh Ehrlich's reagent (2% p-dimethylaminobenzaldehyde w/v with glacial acetic acid). The plates were incubated for 10-30 minutes at room temperature and the absorbance was read at 490 nm. Typically, assays were performed in triplicate and the data analyzed using Excel software program (Microsoft). […] Typically, control values were averaged and subtracted from the sample values. The complete coding regions of murine IDO1 and IDO2 were cloned in-frame with the […] TAG coding region in pcDNA4/TO (Invitrogen) which contains a regulatory region that is repressed by the tetracyclin regulated repressor (TetR). The complete coding regions of IDO1 and IDO2 were generated using gene specific primers [IDO2 5'[…] ID NO: 16) and IDO1 5'[…] ID NO: 17)] and 3' primers that were gene specific and removed the termination codon [IDO[…] ID NO: 18) and IDO1 minus stop [NT] ID NO: 19)]. The IDO1 and 2 coding regions where then cloned in-frame with the […] carboxyl terminal Tag in the pcDNA4 TO vector (Invitrogen). IDO2 expressing 293 cells metabolize tryptophan and can be inhibited by 1-methyl-[…]). […] The cells were maintained in growth media plus supplements for 5 days, after which the media was harvested and subjected to analysis for the presence of kynurenine.

IDO2 activation of LIP = assay: Western blot of LIP (NFIL-6) expression in IDO2 expressing T-REx cells; type: cell-based; details: for inhibition of IDO2 activation of LIP: Western blot (FIG. 9B)
Description: T-REx™ cells (control) and T-REx™ cells expressing IDO1 were either uninduced or induced with doxycycline in the presence or absence of added tryptophan (100 μM). […] T-REx™ cells (control) and T-REx™ cells expressing IDO2 were either uninduced or induced with doxycycline in the presence or absence of added tryptophan. Cells were also optionally treated with the D, L and mixed DL racemic isomers of 1-methyl-tryptophan, (1M-D-T, 1M-L-T and 1M-LD-T, respectively). […] T-REx™ cells expressing IDO2 were either uninduced or induced with doxycycline in the presence or absence of added tryptophan.
Cell lysates were prepared as follows: Cells were removed from the dish by scrapping or pipetting in PBS and collected by centrifugation (2000 rpm/5 minutes). The supernatant was discarded and the cell pellet was lysed in RIPA buffer [50 mM Tris-HCl pH 7.4/150 mM NaCl/1% Triton x-100/1% Sodium deoxycholate/0.1% SDS] plus a protease inhibitor cocktail (Calbiochem Cat #539134). Typically 5×10^5 cells were resuspended in 200 μL of RIPA buffer. Cells lysates were vortexed and incubated on ice or frozen at −20° C. until use. Prior to use lysates were clarified by centrifugation (10,000 rpm/15 minutes) and heat denatured at 95° C. in SDS/sample buffer (100 mM Tris/25% glycerol/2% SDS/0.01% bromophenol blue/25 mM DTT). Proteins were separated by PAGE using NuPAGE® Gels (Invitrogen) and transferred at 100 Volts on to Immobilon-NC Nitrocellulose membranes (Millipore, Billerica, Mass., Cat #HAHY00010) in transfer buffer (25 mM Tris pH 8.3/192 mM glycine/20% methanol). […] For secondary antibody applications, the secondary antibody containing HRP was added in blocking buffer at the appropriate dilution, incubated by shaking at room temperature for 1 hour, and washed 5-6 times in PBS/0.1% Tween. The western membranes were developed by Chemiluminescence using SuperSignal® West Pico substrate (Pierce, Rockford, Ill., Cat #34078), exposed to autography film for an appropriate period of time (3 seconds to 18 hours), and developed.

[2] = test system: purified recIDO2 proteins (rmuIDO2 or rhuIDO2); assay: Enzyme assay of purified recombinant IDO2 (kynurenine formed from L-tryptophan); type: biochemical, murine and human; details: varying amounts 0-100 μM (FIG. 25)
Description: IDO2 activity was measured as the amount of kynurenine formed from L-tryptophan. The standard assay conditions consisted of a mixture containing 50 mM Pipes pH 6.5, between 50 and 600 nM of rmuIDO2 or rhuIDO2 (where 100 nM of rIDO2 is approximately 5.5 μg protein per mL reaction), 200 U catalase (0.2 mg/mL, sp act. ˜1000 U/mg), 200 μM L-tryptophan, 10 μM methylene blue and 20 mM ascorbic acid. The mixture was incubated at various times ranging from 15 minutes to 4 hours at 37° C. before the reaction was stopped by adding trichloroacetic acid (TCA) to 3% final. The samples were then heated to 50-60° C. for 30 minutes to convert N-formyl-kynureneine to kynurenine, clarified by centrifugation, and supernatants (100 μL) were removed to a new dish, mixed with 100 μL Ehrlich's reagent (2% p-dimethylaminobenzaldehyde w/v in glacial acetic acid), and incubated 10-30 minutes at room temperature. Absorbance at 490 nm was determined on a plate reader and the data collected and analyzed using Excel software (Microsoft). Typically, samples were analyzed in triplicate and control values were typically averaged and subtracted from sample values. Enzyme activity was estimated based on the conversion of tryptophan to kynurenine using linear regression analysis based on an absorbance standard curve derived from assay measurements on known amounts of kynurenine.

tumor = details: background statement; listed as L-1MT; cited from earlier work
IDO1 = target: T2, IDO1 (Mus musculus, UniProt P28776); type: cell-based, murine
T2 construct: The complete coding regions of murine IDO1 and IDO2 were cloned in-frame with the V5/His TAG coding region in pcDNA4/TO; expressed in transfected cells; host or cells: T-REx-293 cells (Invitrogen), pcDNA4/TO-muIDO1, doxycycline-induced
Description: This assay measures the product of the indoleamine 2,3-dioxygenase conversion of L-tryptophan to N-formyl-kynurenine by acid hydrolysis to kynurenine, which is measured indirectly though the absorbance (480 nm) of imine produced by the reaction of the aromatic amino group of klynurenine with p-dimethylaminobenzaldehyde (Ehrlich's reagent) as described by Takikawa et al. (J. Biol. Chem. (1988) 263:2041-2048). Typically, 200 μL of media from the test sample is combined with 12.5 μL of 30% TCA and incubated at 50° C. for 30 minutes. Evaporation was avoided by sealing the rim of the plate or tubes with parafilm. Samples are clarified by centrifugation for 10 minutes at 3-10K rpm. 100 μL of the supernatant was removed to a fresh well in an assay plate and mixed with 100 μL of fresh Ehrlich's reagent (2% p-dimethylaminobenzaldehyde w/v with glacial acetic acid). The plates were incubated for 10-30 minutes at room temperature and the absorbance was read at 490 nm. Typically, assays were performed in triplicate and the data analyzed using Excel software program (Microsoft). Background/control samples were typically derived from media from uninduced cells or cells that lack IDO1/2 expression vectors. Typically, control values were averaged and subtracted from the sample values. […]

T2 sequence (P28776 whole entry): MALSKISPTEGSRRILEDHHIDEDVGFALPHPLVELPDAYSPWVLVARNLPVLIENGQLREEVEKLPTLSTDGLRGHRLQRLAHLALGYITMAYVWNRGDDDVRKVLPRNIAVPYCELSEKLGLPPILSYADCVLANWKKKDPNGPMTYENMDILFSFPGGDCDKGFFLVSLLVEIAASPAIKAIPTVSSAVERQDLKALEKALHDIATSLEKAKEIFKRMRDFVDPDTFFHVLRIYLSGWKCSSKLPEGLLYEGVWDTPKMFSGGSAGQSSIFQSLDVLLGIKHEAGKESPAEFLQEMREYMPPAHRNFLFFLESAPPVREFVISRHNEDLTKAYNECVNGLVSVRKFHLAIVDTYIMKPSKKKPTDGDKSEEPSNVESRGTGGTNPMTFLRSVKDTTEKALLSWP

## Cn1cc(CC(N)C(=O)O)c2ccccc21 (racemic) [1M-LD-T, 1-Methyl-DL-Tryptophan]
[1]
  rejection of allogeneic mouse concepti: elicit MHC-restricted and T cell-mediated rejection of allogeneic mouse concepti
IDO2
  kynurenine production in IDO2 expressing cells: no changes in kynurenine levels

## Cn1cc(C[C@@H](N)C(=O)O)c2ccccc21 [1M-D-T, 1-Methyl-D-Tryptophan]
IDO2 activation of LIP
  inhibition of IDO2 activation of LIP: inhibited
IDO2 activation of LIP; summary statement
  activation of GCN2 kinase and subsequent altered LIP expression: blocks the activation of GCN2 kinase and subsequent altered LIP expression
[2]
  inhibition of purified recIDO2 proteins: inhibited
IDO2
  kynurenine production in IDO2 expressing cells: decrease in kynurenine production in the IDO2 expressing cells was observed only with 1M-D-T in a dose dependent manner

## Cn1cc(C[C@H](N)C(=O)O)c2ccccc21 [1M-L-T, 1-Methyl-L-Tryptophan]
IDO2 activation of LIP
  inhibition of IDO2 activation of LIP: to a lesser extent
tumor
  antitumor activity: exhibits a characteristic pattern of antitumor activities; also recorded: effective at inhibiting IDO1 activity and tumor progression
IDO2
  kynurenine production in IDO2 expressing cells: no changes in kynurenine levels

## CN1C(=O)C(Cc2c[nH]c3ccccc23)NC1=S (centres unmarked) [MTH, 5-(indol-3-methyl)-3-methyl-2-thio-Hydantoin]
IDO1
  toxicity of inhibitor to the cells: not toxic to the cells
IDO1; doxycycline-induced T-REx cells, increasing concentrations, 5 days (FIG. 8A)
  kynurenine production in IDO1 expressing cells: decrease in kynurenine production in the IDO1 expressing cells was observed in a dose dependent manner
